From patent publication US7485641B2, “Substituted 3-amino-pyrrolidino-4-lactams” (Pfizer, Inc., priority 2006, dated 2009)
Where a name gives a salt, the structure may show the parent alone.

biological target: T1, DPP-IV (Homo sapiens, UniProt P27487); assay: In vitro assay for dipeptidyl peptidase inhibition; assay type: biochemical; conditions: Examples 156-162; n-value in brackets; IC50's or percent inhibition at 300 nM; read-out: DPP-IV inhibition
T1 construct: purchased Enzyme Systems Products SPE-01
T1 sequence (P27487 whole entry, species assumed): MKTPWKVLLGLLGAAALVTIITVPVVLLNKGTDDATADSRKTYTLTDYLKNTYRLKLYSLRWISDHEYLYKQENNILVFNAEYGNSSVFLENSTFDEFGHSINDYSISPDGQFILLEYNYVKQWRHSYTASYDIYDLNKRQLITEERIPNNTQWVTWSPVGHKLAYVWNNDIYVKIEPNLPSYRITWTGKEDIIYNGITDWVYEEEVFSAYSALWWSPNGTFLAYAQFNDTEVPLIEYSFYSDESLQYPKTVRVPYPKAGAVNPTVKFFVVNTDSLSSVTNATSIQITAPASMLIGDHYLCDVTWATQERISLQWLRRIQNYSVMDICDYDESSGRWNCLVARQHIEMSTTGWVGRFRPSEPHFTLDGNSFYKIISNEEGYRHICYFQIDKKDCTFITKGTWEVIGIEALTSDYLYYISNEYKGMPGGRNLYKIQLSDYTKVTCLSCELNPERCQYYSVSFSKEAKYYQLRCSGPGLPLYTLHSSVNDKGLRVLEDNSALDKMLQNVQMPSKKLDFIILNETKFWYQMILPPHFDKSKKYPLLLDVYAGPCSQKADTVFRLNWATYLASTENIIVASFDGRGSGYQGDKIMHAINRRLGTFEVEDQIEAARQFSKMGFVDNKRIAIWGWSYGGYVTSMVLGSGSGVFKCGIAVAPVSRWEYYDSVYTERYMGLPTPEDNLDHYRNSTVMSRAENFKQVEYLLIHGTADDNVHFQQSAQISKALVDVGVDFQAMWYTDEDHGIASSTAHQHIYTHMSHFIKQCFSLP

With COc1ccc2[nH]c(C(=O)N3C[C@H](N)[C@@H](N4CCCCC4=O)C3)cc2c1 [Example 162, 1-[(3S,4S)-4-Amino-1-(5-methoxy-1H-indole-2-carbonyl)-pyrrolidin-3-yl]-piperidin-2-onehydrochloride] as the compound, how does the IC50 read?
The IC50 was 1460 nM.

same assay, conditions: at 300 nM; n-value given in brackets; read-out: DPP-IV Percent Inhibition at 300 nM

How did the inhibition at 0.3 µM turn out when CC(C)S(=O)(=O)c1ccc2c(N3C[C@H](N)[C@@H](N4CCCCC4=O)C3)ncnc2c1 [Example 138, 1-((3S,4S)-4-amino-1-(7-(isopropylsulfonyl)quinazolin-4-yl)pyrrolidin-3-yl)piperidin-2-one trifluoroacetate] was run?
The inhibition at 0.3 µM was 24.1%.

Which inhibition at 0.3 µM does the source give for N[C@H]1CN(c2cc(OCC(F)(F)C(F)F)ncn2)C[C@@H]1N1CCCCC1=O [Example 94, 1-((3S,4S)-4-Amino-1-(6-(2,2,3,3-tetrafluoropropoxy)pyrimidin-4-yl)pyrrolidin-3-yl)piperidin-2-one trifluoroacetate] here?
Its inhibition at 0.3 µM is 23.2%.

N[C@H]1CN(c2cc(OC3CCCC3)ncn2)C[C@@H]1N1CCCCC1=O [Example 91, 1-((3S,4S)-4-Amino-1-(6-(cyclopentyloxy)pyrimidin-4-yl)pyrrolidin-3-yl)piperidin-2-onetrifluoroacetate] was tested. Which inhibition at 0.3 µM did it give?
Its inhibition at 0.3 µM is 32.2%.

same assay, conditions: n-value given in brackets; read-out: DPP-IV IC50

For N[C@H]1CN(c2ncnc(N3CC[C@H](F)C3)n2)C[C@@H]1N1CC(F)(F)CCC1=O [Example 24, 1-((3S,4S)-4-amino-1-(4-((S)-3-fluoropyrrolidin-1-yl)-1,3,5-triazin-2-yl)pyrrolidin-3-yl)-5,5-difluoropiperidin-2-one], which IC50 is on record?
The IC50 was 47.8 nM.

With N[C@H]1CN(c2ncnc3cc(OC4CCCC4)ccc23)C[C@@H]1N1CCCCC1=O [Example 119, 1-((3S,4S)-4-amino-1-(7-(cyclopentyloxy)quinazolin-4-yl)pyrrolidin-3-yl)piperidin-2-one] as the compound, how does the IC50 read?
Its IC50 is 107 nM.

How did the IC50 turn out when COc1cccc2c(N3C[C@H](N)[C@@H](N4CCCCC4=O)C3)ncnc12 [Example 108, 1-((3S,4S)-4-Amino-1-(8-methoxyquinazolin-4-yl)pyrrolidin-3-yl)piperidin-2-one trifluoroacetate] was run?
The IC50 was 175 nM.

N[C@H]1CN(c2ncnc(N3CCc4ccccc4C3)n2)C[C@@H]1N1CCCCC1=O [Example 56, 1-{(3S,4S)-4-Amino-1-[4-(3,4-dihydro-1H-isoquinolin-2-yl)-[1,3,5]triazin-2-yl]-pyrrolidin-3-yl}-piperidin-2-onetrifluoroacetate] was tested. Which IC50 did it give?
The IC50 was 85.3 nM.

With COc1ccc2c(N3C[C@H](N)[C@@H](N4CCCCC4=O)C3)ncnc2c1 [Example 103, 1-[(3S,4S)-4-Amino-1-(7-methoxy-quinazolin-4-yl)-pyrrolidin-3-yl]-piperidin-2-one hydrochloride] as the compound, how does the IC50 read?
The IC50 was 26.1 nM.

Which IC50 does the source give for N[C@H]1CN(c2cc(N3CCC(F)(F)C3)ncn2)C[C@@H]1N1CCCC1=O [Example 12, 1-((3S,4S)-4-Amino-1-(6-(3,3-difluoropyrrolidin-1-yl)pyrimidin-4-yl)pyrrolidin-3-yl)pyrrolidin-2-onedihydrochloride] here?
Its IC50 is 522 nM.

Which IC50 does the source give for CSc1nc(N2C[C@H](N)[C@@H](N3CCCCC3=O)C2)cc(N2CCC(F)(F)C2)n1 [Example 19, 1-((3S,4S)-4-amino-1-(6-(3,3-difluoropyrrolidin-1-yl)-2-(methylthio)pyrimidin-4-yl)pyrrolidin-3-yl)piperidin-2-one] here?
Its IC50 is 74.9 nM.

With CC(C)c1nc(N2C[C@H](N)[C@@H](N3CCCCC3=O)C2)cc(N2CCC(F)(F)C2)n1 [Example 16, 1-((3S,4S)-4-amino-1-(6-(3,3-difluoropyrrolidin-1-yl)-2-isopropylpyrimidin-4-yl)pyrrolidin-3-yl)piperidin-2-oneformate] as the compound, how does the IC50 read?
The IC50 was 136 nM.

For CO[C@@H]1CCN(c2ncnc(N3C[C@H](N)[C@@H](N4CCCCC4=O)C3)n2)C1 [Example 39, 1-((3S,4S)-4-Amino-1-(4-((R)-3-methoxypyrrolidin-1-yl)-1,3,5-triazin-2-yl)pyrrolidin-3-yl)piperidin-2-onetrifluoroacetate], which IC50 is on record?
The IC50 was 325 nM.

With N[C@H]1CN(c2ncnc(N3CCc4nocc4C3)c2F)C[C@@H]1N1CCCCC1=O [Example 79, 1-((3S,4S)-4-amino-1-(6-(6,7-dihydroisoxazolo[4,3-c]pyridin-5(4H)-yl)-5-fluoropyrimidin-4-yl)pyrrolidin-3-yl)piperidin-2-one] as the compound, how does the IC50 read?
The IC50 was 61.7 nM.

CCSc1ccc2c(N3C[C@H](N)[C@@H](N4CC(F)(F)CCC4=O)C3)ncnc2c1 [Example 99, 1-((3S,4S)-4-amino-1-(7-(ethylthio)quinazolin-4-yl)pyrrolidin-3-yl)-5,5-difluoropiperidin-2-one] was tested. Which IC50 did it give?
Its IC50 is 38.4 nM.

With N[C@H]1CN(c2ncnc3cc(C4CCCC4)ccc23)C[C@@H]1N1CCCCC1=O [Example 111, 1-((3S,4S)-4-amino-1-(7-cyclopentylquinazolin-4-yl)pyrrolidin-3-yl)piperidin-2-one] as the compound, how does the IC50 read?
Its IC50 is 228 nM.

N[C@H]1CN(c2ncnc3cc(Oc4ccccc4)ccc23)C[C@@H]1N1CCCCC1=O [Example 113, 1-((3S,4S)-4-amino-1-(7-phenoxyquinazolin-4-yl)pyrrolidin-3-yl)piperidin-2-one] was tested. Which IC50 did it give?
Its IC50 is 72.5 nM.

Which IC50 does the source give for N[C@H]1CN(c2ncnc(N3Cc4ccccc4C3)n2)C[C@@H]1N1CCCCC1=O [Example 51, 1-{(3S,4S)-4-Amino-1-[4-(1,3-dihydro-isoindol-2-yl)-[1,3,5]triazin-2-yl]-pyrrolidin-3-yl}-piperidin-2-onetrifluoroacetate] here?
The IC50 was 48.3 nM.

How did the IC50 turn out when N[C@H]1CN(c2cc(N3CC[C@H](F)C3)ncn2)C[C@@H]1N1CC(F)(F)CCC1=O [Example 23, 1-((3S,4S)-4-amino-1-(6-((S)-3-fluoropyrrolidin-1-yl)pyrimidin-4-yl)pyrrolidin-3-yl)-5,5-difluoropiperidin-2-one] was run?
Its IC50 is 12 nM.

For COc1ccc2c(N3C[C@H](N)[C@@H](N4CC(F)(F)CCC4=O)C3)ncnc2c1 [Example 98, 1-((3S,4S)-4-amino-1-(7-methoxyquinazolin-4-yl)pyrrolidin-3-yl)-5,5-difluoropiperidin-2-one], which IC50 is on record?
Its IC50 is 34.2 nM.

CC1(O)CCN(c2ncnc(N3C[C@H](N)[C@@H](N4CCCCC4=O)C3)n2)C1 (stereo partly drawn) [Example 44, 1-((3S,4S)-4-amino-1-(4-(3-hydroxy-3-methylpyrrolidin-1-yl)-1,3,5-triazin-2-yl)pyrrolidin-3-yl)piperidin-2-onetrifluoroacetate] was tested. Which IC50 did it give?
The IC50 was 316 nM.

For N[C@H]1CN(c2ncnc3c2ncn3C2CC2)C[C@@H]1N1CCCCC1=O [Example 150, 1-[(3S,4S)-4-Amino-1-(9-cyclopropyl-9H-purin-6-yl)-pyrrolidin-3-yl]-piperidin-2-one hydrochloride], which IC50 is on record?
Its IC50 is 189 nM.

Which IC50 does the source give for N[C@H]1CN(c2ncnc3c2ncn3C2CC2)C[C@@H]1N1CCCC1=O [Example 151, 1-((3S,4S)-4-Amino-1-(9-cyclopropyl-9H-purin-6-yl)pyrrolidin-3-yl)pyrrolidin-2-one hydrochloride] here?
Its IC50 is over 3000 nM.

With N[C@H]1CN(c2cc(N3CCc4nocc4C3)nc(C(F)(F)F)n2)C[C@@H]1N1CCCCC1=O [Example 78, 1-((3S,4S)-4-amino-1-(6-(6,7-dihydroisoxazolo[4,3-c]pyridin-5(4H)-yl)-2-(trifluoromethyl)pyrimidin-4-yl)pyrrolidin-3-yl)piperidin-2-one] as the compound, how does the IC50 read?
The IC50 was 39.4 nM.

How did the IC50 turn out when CCSc1ccc2c(N3C[C@H](N)[C@@H](N4CCCCC4=O)C3)ncnc2c1 [Example 140, 1-((3S,4S)-4-amino-1-(7-(ethylthio)quinazolin-4-yl)pyrrolidin-3-yl)piperidin-2-one] was run?
Its IC50 is 55 nM.
